Assays:
human TGR5 = target: T1, human TGR5 (Homo sapiens, UniProt Q8TDU6); experiment: Cell-based TGR5 assay, HEK293 cells stably expressing human TGR5, cAMP by HTRF; conditions: HEK293 cells stably expressing human TGR5, 30 min at 37 C, 0.05 nM to 10 μM, read-out: pEC50 Human TGR5 (converted)
T1 construct: expressed in transfected cells
T1 sequence (Q8TDU6 1-330): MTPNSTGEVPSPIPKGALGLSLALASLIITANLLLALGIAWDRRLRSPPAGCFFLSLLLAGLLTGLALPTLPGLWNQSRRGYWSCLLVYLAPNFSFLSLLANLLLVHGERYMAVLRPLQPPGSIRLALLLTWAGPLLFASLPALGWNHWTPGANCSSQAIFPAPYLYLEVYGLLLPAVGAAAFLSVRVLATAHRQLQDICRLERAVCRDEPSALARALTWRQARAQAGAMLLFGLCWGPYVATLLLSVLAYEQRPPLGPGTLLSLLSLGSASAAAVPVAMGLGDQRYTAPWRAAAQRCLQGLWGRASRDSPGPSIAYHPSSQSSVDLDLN
Method in brief: (§1)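 cAMP HTRF read-out, converted to concentration via standard curve, after a 30 min, 37 °C compound exposure in HBSS with 10 mM HEPES pH 7.4 and 0.5 mM IBMX, compounds serially diluted 3-fold from 10 mM DMSO stock then 100-fold. Cells: stable human TGR5 HEK293, or NCI-H716 expressing TGR5 endogenously.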

[1] = target: T2, endogenously expressed TGR5 in NCI H716 (Homo sapiens, UniProt Q8TDU6); experiment: Cell-based TGR5 assay, NCI-H716 cells endogenously expressing human TGR5, cAMP by HTRF; conditions: 30 min at 37 C, 22 nM to 50 μM, read-out: pEC50 endogenously expressed TGR5 in NCI H716 (converted)
T2 construct: human caecum carcinoma cell line NCI-H716 which endogenously expresses human TGR5; endogenous in cells; host or cells: NCI-H716
T2 sequence (Q8TDU6 1-330): T1 sequence (Q8TDU6 1-330)
Method in brief: as §1

human IBAT = target: T3, human IBAT (Homo sapiens, UniProt Q12908); experiment: IBAT counter screen, [3H]taurocholic acid uptake in IBAT-transfected HEK293 cells; type: cell-based; conditions: read-out: pEC50 human IBAT (converted)
T3 construct: expressed in transfected cells; host or cells: HEK293
T3 sequence (Q12908 1-348): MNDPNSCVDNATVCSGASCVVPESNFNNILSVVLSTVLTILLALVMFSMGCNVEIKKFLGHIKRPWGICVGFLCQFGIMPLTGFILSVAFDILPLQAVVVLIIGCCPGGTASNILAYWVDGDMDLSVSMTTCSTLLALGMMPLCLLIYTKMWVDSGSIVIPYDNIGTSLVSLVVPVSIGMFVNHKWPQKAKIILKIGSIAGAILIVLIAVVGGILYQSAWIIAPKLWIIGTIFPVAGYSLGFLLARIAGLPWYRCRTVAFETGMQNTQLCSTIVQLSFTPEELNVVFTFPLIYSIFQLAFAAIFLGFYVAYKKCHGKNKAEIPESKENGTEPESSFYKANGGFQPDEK
Method: Following a 40-min incubation, the solution was removed, and the cells were washed twice with uptake buffer. Cells were lysed by addition of 20 μL 0.1% Tween 80 followed by 100 μL scintillation fluid and counted using a TopCount (Perkin Elmer).

Structure (SMILES)	EC50 (human TGR5)	EC50 [1]	EC50 (human IBAT)
CC(C)(OCc1cc(Cl)ccc1Cl)C(=O)N1CCN(C2CC2)c2ccccc21 [Example 1, 1-(4-cyclopropyl-1,2,3,4-tetrahydroquinoxalin-1-yl)-2-[(2,5-dichlorophenyl)methoxy]-2-methylpropan-1-one]	126 to 1000 nM	126 to 1000 nM	> 25100 nM
O=C([C@@H]1CCCCN1Cc1cc(Cl)ccc1Cl)N1CCCc2ccccc21 [Example 11, (S)-(1-(2,5-dichlorobenzyl)piperidin-2-yl)(3,4-dihydroquinolin-1(2H)-yl)methanone]	1260 to 50100 nM	1260 to 50100 nM	> 25100 nM
CN(Cc1cc(Cl)ccc1Cl)C1(C(=O)N2CCN(C3CC3)c3ccccc32)CC1 [Example 27, (4-cyclopropyl-3,4-dihydroquinoxalin-1(2H)-yl)(1-((2,5-dichlorobenzyl)(methyl)amino)cyclopropyl)methanone]	126 to 1000 nM	1260 to 50100 nM	> 25100 nM
O=C(N1CCN(C2CC2)c2ccccc21)N1CCCC1Cc1ccccc1Cl (stereo not drawn) [Example 28]	1260 to 50100 nM	1260 to 50100 nM	> 25100 nM
COc1ccccc1N(C)C(=O)C1(OCc2cc(Cl)ccc2Cl)CC1 [Example 36, 1-(2,5-dichlorobenzyloxy)-N-(2-methoxyphenyl)-N-methylcyclopropanecarboxamide]	< 100 nM	126 to 1000 nM	> 25100 nM
COc1cccnc1N(C)C(=O)C1(OCc2cc(Cl)ccc2Cl)CC1 [Example 37, 1-(2,5-dichlorobenzyloxy)-N-(3-methoxypyridin-2-yl)-N-methylcyclopropanecarboxamide]	126 to 1000 nM	1260 to 50100 nM	> 25100 nM
CN(C(=O)C1(OCc2cc(Cl)ccc2Cl)CC1)c1ccccc1OCC1CC1 [Example 40, N-(2-(cyclopropylmethoxy)phenyl)-1-(2,5-dichlorobenzyloxy)-N-methylcyclopropanecarboxamide]	< 100 nM	126 to 1000 nM	> 25100 nM
O=C(c1cccn1Cc1cc(Cl)ccc1Cl)N1CCN(C2CC2)c2ccccc21 [Example 61, (4-cyclopropyl-3,4-dihydroquinoxalin-1(2H)-yl)(1-(2,5-dichlorobenzyl)-1H-pyrrol-2-yl)methanone]	126 to 1000 nM	126 to 1000 nM	> 25100 nM
O=C(c1nccn1Cc1cc(Cl)ccc1Cl)N1CCN(C2CC2)c2ccccc21 [Example 62, (4-cyclopropyl-3,4-dihydroquinoxalin-1(2H)-yl)(1-(2,5-dichlorobenzyl)-1H-imidazol-2-yl)methanone]	1260 to 50100 nM	1260 to 50100 nM	> 25100 nM
O=C(c1cccc(OCc2cc(Cl)ccc2Cl)n1)N1CCN(C2CC2)c2ccccc21 [Example 63, 1-cyclopropyl-4-([6-[(2,5-dichlorophenyl)methoxy]pyridin-2-yl]carbonyl)-1,2,3,4-tetrahydroquinoxaline]	1260 to 50100 nM	1260 to 50100 nM	> 25100 nM
O=C(c1cccc(=O)n1Cc1cc(Cl)ccc1Cl)N1CCN(C2CC2)c2ccccc21 [Example 64, 6-[(4-cyclopropyl-1,2,3,4-tetrahydroquinoxalin-1-yl)carbonyl]-1-[(2,5-dichlorophenyl)methyl]-1,2-dihydropyridin-2-one]	1260 to 50100 nM	1260 to 50100 nM	> 25100 nM
Cc1nn(C)c(Oc2cc(Cl)ccc2Cl)c1C(=O)N1CCN(C2CC2)c2ccccc21 [Example 65, 1-cyclopropyl-4-[[5-(2,5-dichlorophenoxy)-1,3-dimethyl-1H-pyrazol-4-yl]carbonyl]-1,2,3,4-tetrahydroquinoxaline]	1260 to 50100 nM	1260 to 50100 nM	> 25100 nM
O=C(c1ncoc1Cc1cc(Cl)ccc1Cl)N1CCN(C2CC2)c2ccccc21 [Example 66, 1-cyclopropyl-4-([5-[(2,5-dichlorophenyl)methyl]-1,3-oxazol-4-yl]carbonyl)-1,2,3,4-tetrahydroquinoxaline]	1260 to 50100 nM	1260 to 50100 nM	> 25100 nM

The remaining lines, values ahead:

EC50 (human TGR5)	EC50 [1]	EC50 (human IBAT)	Structure (SMILES)
1260 to 50100 nM	> 50100 nM	> 25100 nM	O=C(COc1cc(Cl)ccc1Cl)N1CCN(C2CC2)c2ccccc21 [Example 4, 1-(4-cyclopropyl-3,4-dihydroquinoxalin-1(2H)-yl)-2-(2,5-dichlorophenoxy)ethanone]
< 100 nM	126 to 1000 nM	> 25100 nM	O=C(N1CCN(C2CC2)c2ccccc21)C1(OCc2cc(Cl)ccc2Cl)CCCC1 [Example 8, (4-cyclopropyl-3,4-dihydroquinoxalin-1(2H)-yl)(1-(2,5 dichlorobenzyloxy)cyclopentyl)methanone]
1260 to 50100 nM	1260 to 50100 nM	> 25100 nM	O=C([C@@H]1CCCCN1C(=O)c1cc(Cl)ccc1Cl)N1CCN(C2CC2)c2ccccc21 [Example 13, (S)-(2-(4-cyclopropyl-1,2,3,4-tetrahydroquinoxaline-1-carbonyl)piperidin-1-yl)(2,5-dichlorophenyl)methanone]
1260 to 50100 nM	1260 to 50100 nM	> 25100 nM	O=C([C@@H]1CCCN1S(=O)(=O)c1cc(Cl)ccc1Cl)N1CCN(C2CC2)c2ccccc21 [Example 18]
1260 to 50100 nM	1260 to 50100 nM	> 25100 nM	CC1(C)C[C@@H](C(=O)N2CCN(C3CC3)c3ccccc32)N(Cc2cc(Cl)ccc2Cl)C1 [Example 19, (S)-(4-cyclopropyl-3,4-dihydroquinoxaline-1 (2H)-yl)(1-(2,5-dichlorobenzyl)-4,4-dimethylpyrrolidin-2-yl)methanone]
1260 to 50100 nM	1260 to 50100 nM	> 25100 nM	O=C([C@@H]1C2CC2CN1Cc1cc(Cl)ccc1Cl)N1CCN(C2CC2)c2ccccc21 (stereo partly drawn) [Example 24, (4-cyclopropyl-3,4-dihydroquinoxaline-1(2H)-yl)((2S)-3-(2,5-dichlorobenzyl)-3-azabicyclo[3.1.0]hexan-2-yl)methanone]
1260 to 50100 nM	1260 to 50100 nM	> 25100 nM	O=C([C@@H]1CCC(=O)N1Cc1cc(Cl)ccc1Cl)N1CCN(C2CC2)c2ccccc21 [Example 25, (S)-5-(4-cyclopropyl-1,2,3,4-tetrahydroquinoxaline-1-carbonyl)-1-(2,5-dichlorobenzyl)pyrrolidin-2-one]
< 100 nM	126 to 1000 nM	> 25100 nM	O=C(C1=C(Oc2cc(Cl)ccc2Cl)CCCC1)N1CCN(C2CC2)c2ccccc21 [Example 29, (4-cyclopropyl-3,4-dihydroquinoxalin-1(2H)-yl)(2-(2,5-dichlorophenoxy)cyclohex-1-enyl)methanone]
< 100 nM	126 to 1000 nM	> 25100 nM	CC(C)(COc1cc(Cl)ccc1Cl)C(=O)N1CCN(C2CC2)c2ccccc21 [Example 31, 1-(4-cyclopropyl-1,2,3,4-tetrahydroquinoxalin-1-yl)-3-(2,5-dichlorophenoxy)-2,2-dimethylpropan-1-one]
< 100 nM	< 100 nM	> 25100 nM	O=C(N1CCN(C2CC2)c2ccccc21)C1(NCc2cc(Cl)ccc2Cl)CCC1 [Example 56]
1260 to 50100 nM	1260 to 50100 nM	> 25100 nM	O=C(C1CCN(Cc2cc(Cl)ccc2Cl)C1)N1CCN(C2CC2)c2ccccc21 (stereo not drawn) [Example 57, (4-cyclopropyl-3,4-dihydroquinoxalin-1(2H)-yl)(1-(2,5-dichlorobenzyl)pyrrolidin-3-yl) methanone]
